Series [1] is described as follows: Stable form screen (slurry in solvents, XRPD). The class given is physicochemical. As to conditions: 2 weeks. On the procedure:
Approximately 15-60 mg of amorphous (1-{3-[6-(9,9-difluoro-7-{2-[5-(2-methoxycarbonylamino-3-methyl-butyryl)-5-aza-spiro[2.4]hept-6-yl]-3H-imidazol-4-yl}-9H-fluoren-2-yl)-1H-benzoimidazol-2-yl]-2-aza-bicyclo[2.2.1]heptane-2-carbonyl}-2-methyl-propyl)-carbamic acid (HPLC purity of 99.3%) were weighed and transferred to a vial equipped with a mini magnetic stir bar. […] The slurry was allowed to stir for two weeks at room temperature (˜22° C.) and examined periodically.
After two weeks, a sample of 300 μL of the slurry was removed from the vial, transferred to a centrifuge filter (Costar, 0.45 micron) and centrifuged at 1000 rpm for 2 minutes. The solid in the wet cake form were analyzed using XRPD analysis (PANalytical X'Pert PRO X-ray powder diffractometer). This diffractometer uses Cu-Kα radiation at a wavelength of 1.54178 Å, and it operates under reflection mode. Scan range is from 2 to 40 degree 2 theta. The step size is 0.0080 at a scan speed of 0.13°/s, which gives about 5 min per scan. After air drying the small sample, XRPD analysis was performed again to monitor any change in the diffraction pattern between the wet and dry material. Thermogravimetric analysis (TGA) was run on the saturated solution to determine the solubility of the equilibrating solids in the solvent when the solid appeared to be crystalline.

Series [2] can be described thus: Dynamic vapor sorption (DVS) hygroscopicity. Type of series: physicochemical. The settings on record: for moisture uptake / weight gain (DVS): at 90% relative humidity.
A short description of series [3]: Photostability of solid forms, photoexposure 0.9 M Lux-hrs, HPLC analysis. Type of series: physicochemical. The source says:
FIG. 6 compares the photodegradation behaviors of amorphous Compound I (vertical stripes), Compound I Form II (horizontal stripes), and a partially amorphous hydrochloride salt of Compound I (diagonal stripes) during photoexposure at 0.9 M Lux-hrs. The leftmost group of bars represents the overall decrease in HPLC % AN of these three forms of Compound I. The middle group of bars represents the formation of a primary photodegradation impurity resulting from each form of Compound I. The rightmost group of bars similarly represents the formation of a secondary photodegradation impurity that eluted on HPLC at relative retention time (RRT) 1.67.
HPLC analyses of the samples compared the amounts of photodegradation products in each sample. […] For example, Form II of Compound I gave rise to the lowest (2.24% AN) amount of photodegradation in this experiment.
The middle group and rightmost group of bars depict the amounts of two of the major photodegradation impurities formed after the three solid forms of Compound I were photoexposed.

The nature of series [4]: Dissolution rate / kinetic solubility in water at pH 3.
The nature of series [5]: Slurry test in water. The class given is physicochemical. An excerpt:
The source of water is believed to be moisture in the air during material transfer.

The nature of series [6]: Solubility of Compound I over a greater pH range. As to conditions: aqueous buffer.

Molecules are shown by their SMILES. Several values for one entry are separate records, joined by “and”; a condition that tells them apart may be missing. Equal entries are not always repeated. Where two headings read alike, the source gives them in different places. Where only a bound is given, the exact number is not on record here.

`COC(=O)N[C@H](C(=O)N1CC2(CC2)C[C@H]1c1ncc(-c2ccc3c(c2)C(F)(F)c2cc(-c4ccc5nc([C@@H]6[C@H]7CC[C@H](C7)N6C(=O)[C@@H](NC(=O)OC)C(C)C)[nH]c5c4)ccc2-3)[nH]1)C(C)C` [Compound I D-tartrate, (1-{3-[6-(9,9-difluoro-7-{2-[5-(2-methoxycarbonylamino-3-methyl-butyryl)-5-aza-spiro[2.4]hept-6-yl]-3H-imidazol-4-yl}-9H-fluoren-2-yl)-1H-benzoimidazol-2-yl]-2-aza-bicyclo[2.2.1]heptane-2-carbonyl}-2-methyl-propyl)-carbamic acid D-tartrate]: the “physical form by XRPD after slurry in various solvents” value in series [1] is “physical form did not change”. The “moisture uptake / weight gain (DVS)” value in series [2] is “less than 3%”.
Consider `COC(=O)N[C@H](C(=O)N1CC2(CC2)C[C@H]1c1ncc(-c2ccc3c(c2)C(F)(F)c2cc(-c4ccc5nc([C@@H]6[C@H]7CC[C@H](C7)N6C(=O)[C@@H](NC(=O)OC)C(C)C)[nH]c5c4)ccc2-3)[nH]1)C(C)C` [Compound I Form II, (1-{3-[6-(9,9-difluoro-7-{2-[5-(2-methoxycarbonylamino-3-methyl-butyryl)-5-aza-spiro[2.4]hept-6-yl]-3H-imidazol-4-yl}-9H-fluoren-2-yl)-1H-benzoimidazol-2-yl]-2-aza-bicyclo[2.2.1]heptane-2-carbonyl}-2-methyl-propyl)-carbamic acid methyl ester monoacetone solvate], for which the “photostability compared with amorphous Compound I and partially amorphous HCl salt” value in series [3] was “best photostability among the three forms compared”. Besides, in series [3] (solid), the “overall decrease in HPLC % AN (amount of photodegradation)” value is on record as 2.24 % AN. For the same compound, the dissolution rate ranking entry in series [4] is “slowest dissolution rate”.
As to `COC(=O)N[C@H](C(=O)N1CC2(CC2)C[C@H]1c1ncc(-c2ccc3c(c2)C(F)(F)c2cc(-c4ccc5nc([C@@H]6[C@H]7CC[C@H](C7)N6C(=O)[C@@H](NC(=O)OC)C(C)C)[nH]c5c4)ccc2-3)[nH]1)C(C)C` [Compound I Form III, (1-{3-[6-(9,9-difluoro-7-{2-[5-(2-methoxycarbonylamino-3-methyl-butyryl)-5-aza-spiro[2.4]hept-6-yl]-3H-imidazol-4-yl}-9H-fluoren-2-yl)-1H-benzoimidazol-2-yl]-2-aza-bicyclo[2.2.1]heptane-2-carbonyl}-2-methyl-propyl)-carbamic acid methyl ester], in series [2] (listed as Form III), the “moisture uptake / weight gain (DVS)” value is given as “less than 0.3%” and the “hygroscopicity by DVS (words)” value is “nonhygroscopic”.
For the compound `COC(=O)N[C@H](C(=O)N1CC2(CC2)C[C@H]1c1ncc(-c2ccc3c(c2)C(F)(F)c2cc(-c4ccc5nc([C@@H]6[C@H]7CC[C@H](C7)N6C(=O)[C@@H](NC(=O)OC)C(C)C)[nH]c5c4)ccc2-3)[nH]1)C(C)C` [Compound I Form V, (1-{3-[6-(9,9-difluoro-7-{2-[5-(2-methoxycarbonylamino-3-methyl-butyryl)-5-aza-spiro[2.4]hept-6-yl]-3H-imidazol-4-yl}-9H-fluoren-2-yl)-1H-benzoimidazol-2-yl]-2-aza-bicyclo[2.2.1]heptane-2-carbonyl}-2-methyl-propyl)-carbamic acid methyl ester ethyl acetate solvate], the “hygroscopicity by DVS (words)” value in series [2] (listed as Form V) is “non-hygroscopic”.
As for `COC(=O)N[C@H](C(=O)N1CC2(CC2)C[C@H]1c1ncc(-c2ccc3c(c2)C(F)(F)c2cc(-c4ccc5nc([C@@H]6[C@H]7CC[C@H](C7)N6C(=O)[C@@H](NC(=O)OC)C(C)C)[nH]c5c4)ccc2-3)[nH]1)C(C)C` [Compound I Form VIII, (1-{3-[6-(9,9-difluoro-7-{2-[5-(2-methoxycarbonylamino-3-methyl-butyryl)-5-aza-spiro[2.4]hept-6-yl]-3H-imidazol-4-yl}-9H-fluoren-2-yl)-1H-benzoimidazol-2-yl]-2-aza-bicyclo[2.2.1]heptane-2-carbonyl}-2-methyl-propyl)-carbamic acid methyl ester], the “stability in water (slurry test)” value in series [5] is recorded as “stable in water”. The “water absorbed (DVS)” value in series [2] was “roughly one equivalent of water”.
In the case of `COC(=O)N[C@H](C(=O)N1CC2(CC2)C[C@H]1c1ncc(-c2ccc3c(c2)C(F)(F)c2cc(-c4ccc5nc([C@@H]6[C@H]7CC[C@H](C7)N6C(=O)[C@@H](NC(=O)OC)C(C)C)[nH]c5c4)ccc2-3)[nH]1)C(C)C` [Compound I Form XV, (1-{3-[6-(9,9-difluoro-7-{2-[5-(2-methoxycarbonylamino-3-methyl-butyryl)-5-aza-spiro[2.4]hept-6-yl]-3H-imidazol-4-yl}-9H-fluoren-2-yl)-1H-benzoimidazol-2-yl]-2-aza-bicyclo[2.2.1]heptane-2-carbonyl}-2-methyl-propyl)-carbamic acid methyl ester], the “hygroscopicity by DVS (words)” value in series [2] (listed as Form XV) is “non-hygroscopic”.
In series [6], `COC(=O)N[C@H](C(=O)N1CC2(CC2)C[C@H]1c1ncc(-c2ccc3c(c2)C(F)(F)c2cc(-c4ccc5nc([C@@H]6[C@H]7CC[C@H](C7)N6C(=O)[C@@H](NC(=O)OC)C(C)C)[nH]c5c4)ccc2-3)[nH]1)C(C)C` [Compound I, (1-{3-[6-(9,9-difluoro-7-{2-[5-(2-methoxycarbonylamino-3-methyl-butyryl)-5-aza-spiro[2.4]hept-6-yl]-3H-imidazol-4-yl}-9H-fluoren-2-yl)-1H-benzoimidazol-2-yl]-2-aza-bicyclo[2.2.1]heptane-2-carbonyl}-2-methyl-propyl)-carbamic acid methyl ester] had a solubility of under 1 µg/mL.
For the compound `COC(=O)N[C@H](C(=O)N1CC2(CC2)C[C@H]1c1ncc(-c2ccc3c(c2)C(F)(F)c2cc(-c4ccc5nc([C@@H]6[C@H]7CC[C@H](C7)N6C(=O)[C@@H](NC(=O)OC)C(C)C)[nH]c5c4)ccc2-3)[nH]1)C(C)C` [amorphous Compound I], in series [2], the “hygroscopicity by DVS (words)” value is “hygroscopic”; the “moisture uptake / weight gain (DVS)” value is 5.4% and 5.6%. In series [2] (any humidity level), the “moisture induced phase transformation” value is “does not undergo moisture induced phase transformation”.

The values are drawn from patent US9139570B2, “Solid forms of an antiviral compound” (priority 2012, dated 2015).
